Laboratory results reported in patent US7173025B1, “Aminoheterocyclic derivatives as antithrombotic or anticoagulant agents” (Zeneca Limited, priority 1996, dated 2007).
pIC50: −log10 of the molar value. Counter-ions that a name gives are not always drawn.

Tested on: blood plasma
Assay: Measurement of Anticoagulant Activity (in vitro prothrombin time test)
Set-up: species or system human, rat or rabbit
Conditions: test c)
Procedure: c) Measurement of Anticoagulant Activity
An in vitro assay whereby human, rat or rabbit venous blood was collected and added directly to a sodium citrate solution (3.2 g/100 ml, 9 parts blood to 1 part citrate solution). Blood plasma was prepared by centrifugation (1000 g, 15 minutes) and stored at 2-4° C. Conventional prothrombin time (PT) tests were carried out in the presence of various concentrations of a test compound and the concentration of test compound required to double the clotting time, hereinafter referred to as CT2, was determined. In the PT test, the test compound and blood plasma were incubated at 37° C. for 10 minutes. Tissue thromboplastin with calcium (Sigma Limited, Poole, England) was added and fibrin formation and the time required for a clot to form were determined.

Row | Compound | CT2 (PT), concentration of test compound required to double the clotting time
1 | O=C(c1ccc(S(=O)(=O)c2ccc3cc(Cl)ccc3c2)cc1)N1CCN(c2ccncc2)CC1 [Example 1, 1-[4-(6-chloronaphth-2-ylsulphonyl)benzoyl]-4-(4-pyridyl)piperazine] | 5 µM

Target: human Factor Xa (Homo sapiens, UniProt P00742)
Assay: Measurement of Factor Xa Inhibition (chromogenic substrate S-2765)
Assay type: biochemical
Conditions: test a); read-out: IC50 against Factor Xa
Procedure: a) Measurement of Factor Xa Inhibition
An in vitro assay system was carried out based on the method of Kettner et al., J. Biol. Chem., 1990, 265, 18289-18297, whereby various concentrations of a test compound were dissolved in DMSO and diluted in a pH7.5 buffer containing 0.5% of a polyethylene glycol (PEG 6000) and incubated at 37° C. with human Factor Xa (0.001 Units/ml, 0.3 ml) for 15 minutes. The chromogenic substrate S-2765 (KabiVitum AB, 20 μM) was added and the mixture was incubated at 37° C. for 20 minutes whilst the absorbance at 405 nm was measured. The maximum reaction velocity (Vmax) was determined and compared with that of a control sample containing no test compound. Inhibitor potency was expressed as an IC50 value.

Chain of human Factor Xa (P00742 235-488 limits assumed): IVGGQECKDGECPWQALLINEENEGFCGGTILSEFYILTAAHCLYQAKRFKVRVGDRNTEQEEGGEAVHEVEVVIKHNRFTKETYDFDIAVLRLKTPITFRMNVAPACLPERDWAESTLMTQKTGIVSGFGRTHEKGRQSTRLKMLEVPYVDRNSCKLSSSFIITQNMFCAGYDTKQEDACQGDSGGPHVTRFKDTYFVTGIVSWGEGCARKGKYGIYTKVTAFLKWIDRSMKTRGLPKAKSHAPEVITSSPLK
Chain of human Factor Xa (P00742 41-179 partner limits assumed): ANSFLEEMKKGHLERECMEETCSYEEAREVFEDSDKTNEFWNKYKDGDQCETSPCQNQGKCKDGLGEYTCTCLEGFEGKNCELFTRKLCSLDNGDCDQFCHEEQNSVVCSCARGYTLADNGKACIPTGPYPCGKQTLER

Row | pIC50 | Compound
2 | 7.89 | O=C(c1ccc(S(=O)(=O)c2ccc3cc(Cl)ccc3c2)cc1)N1CCN(c2ccncc2)CC1 [Example 1, 1-[4-(6-chloronaphth-2-ylsulphonyl)benzoyl]-4-(4-pyridyl)piperazine]

Tested on: not given
Assay: not given
Conditions: not given

Row | melting point | Compound
3 | 302 to 304 °C | O=S(=O)(Nc1ccc(OC2CCN(c3ccncc3)CC2)cc1)c1ccc(-c2ccc(Br)cc2)cc1 (as salt: hydrochloride) [Example 4, 4′-bromo-N-{4-[1-(4-pyridyl)piperidin-4-yloxy]phenyl}-4-biphenylylsulphonamide]
4 | 167 to 169 °C | O=S(=O)(Nc1ccc(OCC2CCN(c3ccncc3)CC2)cc1)c1ccc2cc(Br)ccc2c1 (as salt: hydrochloride) [Example 12, 6-bromo-N-{4-[1-(4-pyridyl)piperidin-4-ylmethoxy]-phenyl}-2-naphthalenesulphonamide]
5 | 298 to 300 °C | O=S(=O)(Nc1cccc(OC2CCN(c3ccncc3)CC2)c1)c1ccc2cc(Br)ccc2c1 (as salt: hydrochloride) [Example 16, 6-bromo-N-{3-[1-(4-pyridyl)piperidin-4-yloxy]phenyl}-2-naphthalenesulphonamide]
6 | 236 to 238 °C | O=S(=O)(c1ccc(S(=O)(=O)N2CCN(c3ccncc3)CC2)cc1)c1ccc2cc(Br)ccc2c1 (as salt: trifluoroacetate) [Example 25, 4-[4-(6-bromonaphth-2-ylsulphonyl)phenylsulphonyl]-1-(4-pyridyl)piperazine]
7 | 197 to 200 °C | O=S(=O)(Nc1ccccc1OCC1CCN(c2ccncc2)CC1)c1ccc2cc(Br)ccc2c1 [Example 20, 6-bromo-N-{2-[1-(4-pyridyl)piperidin-4-ylmethoxy]phenyl}-2-naphthalenesulphonamide]
8 | 180 to 183 °C | O=S(=O)(c1ccc(OC2CCN(c3ccncc3)CC2)cc1)c1ccc2cc(Br)ccc2c1 [Example 22, 4-[4-(6-bromonaphth-2-ylsulphonyl)phenoxy]-1-(4-pyridyl)piperidine]

More lines, now with the values behind:

Row | Compound | melting point
9 | Cc1ccc(S(=O)(=O)Nc2ccc(OC3CCN(c4ccncc4)CC3)cc2)cc1 (as salt: hydrochloride) [Example 7, N-{4-[1-(4-pyridyl)piperidin-4-yloxy]phenyl}-4-toluenesulphonamide] | 270 to 272 °C
10 | O=S(=O)(Nc1ccc(OCC2CCN(c3ccncc3)CC2)cc1)c1ccc(-c2ccc(Br)cc2)cc1 (as salt: hydrochloride) [Example 11, 4′-bromo-N-{4-[1-(4-pyridyl)piperidin-4-ylmethoxy]phenyl}-4-biphenylylsulphonamide] | 293 to 295 °C
11 | O=S(=O)(/C=C/c1ccc(Cl)cc1)Nc1ccc(OCC2CCN(c3ccncc3)CC2)cc1 (as salt: hydrochloride) [Example 13, 4-chloro-N-{4-[1-(4-pyridyl)piperidin-4-ylmethoxy]phenyl}-(E)-styrylsulphonamide] | 220 to 223 °C
12 | O=S(=O)(/C=C/c1ccc(Cl)cc1)Nc1cccc(OC2CCN(c3ccncc3)CC2)c1 (as salt: hydrochloride) [Example 21, 4-chloro-N -{3-[1-(4-pyridyl)piperidin-4-yloxy]phenyl}-(E)-styrylsulphonamide] | 147 to 150 °C
13 | O=C(c1ccc(S(=O)(=O)c2ccc3cc(Cl)ccc3c2)cc1)N1CCN(c2ccncc2)CC1 [Example 1, 1-[4-(6-chloronaphth-2-ylsulphonyl)benzoyl]-4-(4-pyridyl)piperazine] | 267 to 269 °C
14 | Cc1ccc(S(=O)(=O)N(c2ccc(OC3CCN(c4ccncc4)CC3)cc2)S(=O)(=O)c2ccc(C)cc2)cc1 [Example 8, N-{4-[1-(4-pyridyl)piperidin-4-yloxy]phenyl}-N-(4-tolylsulphonyl)-4-toluenesulphonamide] | 196 to 198 °C
15 | O=S(=O)(c1ccc(-c2ccc(Br)cc2)cc1)N(c1ccc(OCC2CCN(c3ccncc3)CC2)cc1)S(=O)(=O)c1ccc(-c2ccc(Br)cc2)cc1 [Example 14, 4′-bromo-N-(4′-bromo-4-biphenylylsulphonyl)-N-{4-[1-(4-pyridyl)piperidin-4-ylmethoxy]phenyl}-4-biphenylylsulphonamide] | 136 to 140 °C
16 | O=S(=O)(c1ccc2cc(Br)ccc2c1)N(c1ccc(OCC2CCN(c3ccncc3)CC2)cc1)S(=O)(=O)c1ccc2cc(Br)ccc2c1 [Example 15, 6-bromo-N-(6-bromonaphth-2-ylsulphonyl)-N-{4-[1-(4-pyridyl)piperidin-4-ylmethoxy]phenyl}-2-naphthalenesulphonamide] | 246 to 252 °C
17 | O=C(c1ccc(Sc2ccc3cc(Br)ccc3c2)cc1)N1CCN(c2ccncc2)CC1 [Example 27, 1-[4-(6-bromonaphth-2-ylthio)benzoyl]-4-(4-pyridyl)piperazine] | 210 to 213 °C

Target: human thrombin (Homo sapiens, UniProt P00734)
Assay: Measurement of Thrombin Inhibition (chromogenic substrate S-2238)
Assay type: biochemical
Conditions: test b); read-out: IC50 against thrombin
Procedure: b) Measurement of Thrombin Inhibition
The procedure of method a) was repeated except that human thrombin (0.005 Units/ml) and the chromogenic substrate S-2238 (KabiVitum AB, 7 μM) were employed.

Row | pIC50 | Compound
18 | < 4.40 | O=C(c1ccc(S(=O)(=O)c2ccc3cc(Cl)ccc3c2)cc1)N1CCN(c2ccncc2)CC1 [Example 1, 1-[4-(6-chloronaphth-2-ylsulphonyl)benzoyl]-4-(4-pyridyl)piperazine]
